Results reported in patent US10370343B2, “[6,6] Fused bicyclic HDAC8 inhibitors” (FORMA Therapeutics, Inc., priority 2015, dated 2019).
pIC50: −log10 of the molar value.

Biological target: T1, Full length human recombinant HDAC8 protein (Homo sapiens, UniProt Q9BY41)
T1 construct: Full length human recombinant HDAC8 protein was expressed in baculoviral system; made in house
T1 sequence (Q9BY41 1-377): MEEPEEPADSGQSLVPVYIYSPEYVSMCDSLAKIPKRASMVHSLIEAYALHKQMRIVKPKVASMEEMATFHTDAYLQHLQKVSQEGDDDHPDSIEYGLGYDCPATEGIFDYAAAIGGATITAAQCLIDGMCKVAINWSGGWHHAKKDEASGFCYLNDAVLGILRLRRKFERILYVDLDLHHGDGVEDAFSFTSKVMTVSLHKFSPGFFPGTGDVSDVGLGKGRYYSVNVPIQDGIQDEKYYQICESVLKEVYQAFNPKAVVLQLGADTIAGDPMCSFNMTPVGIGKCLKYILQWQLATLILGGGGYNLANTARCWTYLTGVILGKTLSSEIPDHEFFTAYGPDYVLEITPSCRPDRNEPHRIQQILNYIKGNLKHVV
Experiment: In vitro histone deacetylase assay: enzymatic HDAC8 electrophoretic mobility shift assay
Assay type: biochemical
Conditions: electrophoretic mobility shift assay; enzyme 1 nM; 2 μM fluorescently labeled peptide substrate RHKK(Ac)-NH2; 25° C.; 12 concentrations; read-out: HDAC8 IC50
Description: The enzymatic HDAC8 assay was performed using electrophoretic mobility shift assay. Full length human recombinant HDAC8 protein was expressed in baculoviral system and purified by affinity chromatography. The enzymatic reactions were assembled in 384 well plates in a total volume of 25 μL in a reaction buffer composing: 100 mM HEPES, pH7.5, 25 mM KCl, 0.1% bovine serum albumin, 0.01% Triton X-100, 1% DMSO (from compounds) 2 μM of the fluorescently labeled peptide substrate and enzyme. The enzyme was added at a final concentration of 1 nM. The peptide substrate RHKK(Ac)—NH2 was used. The compounds were tested at 12 concentrations spaced by 3× dilution intervals. Negative control samples (0%-inhibition in the absence of inhibitor) and positive control samples (100%-inhibition) were assembled in replicates of four in each assay plate. The reactions were incubated at 25° C. and quenched by the addition of 45 μL of termination buffer (100 mM HEPES, pH 7.5, 0.01% Triton X-100, 0.05% SDS).
The terminated assay plates were analyzed on LabChip® 3000 microfluidic electrophoresis instrument (Perkin Elmer/Caliper Life Sciences). The fluorescence intensity of the electrophoretically separated de-acetylated product and substrate peptide was measured. Activity in each sample was determined as the product to sum ratio (PSR): P/(S+P), where P is the peak height of the product peptide and S is the peak height of the substrate peptide. Percent inhibition (Pinh) is determined using the following equation: Pinh=(PSR0%−PSRinh)/(PSR0%−PSR100%)*100, where PSRinh is the product sum ratio in the presence of inhibitor, PSR0% is the average product sum ration in the absence of inhibitor and PSR100% is the average product sum ratio in 100%-inhibition control samples. The IC50 values of inhibitors were determined by fitting the %-inhibition curves with 4 parameter dose-response model using XLfit 4 software.

SMILES	pIC50
O=C(NO)c1ccc2c(c1)N(Cc1ccc(S(=O)(=O)C(F)F)cc1)C(=O)CO2 [Compound I-88, 4-(4-((difluoromethyl)sulfonyl)benzyl)-N-hydroxy-3-oxo-3,4-dihydro-2H-benzo[b][1,4]oxazine-6-carboxamide]	> 7.60
COc1ccc(CN2C(=O)COc3cc(C(=O)NO)ccc32)cc1 [Compound I-89, N-hydroxy-4-(4-methoxybenzyl)-3-oxo-3,4-dihydro-2H-benzo[b][1,4]oxazine-7-carboxamide]	6.00 to 7.00
CS(=O)(=O)c1ccc(CN2C(=O)COc3cc(C(=O)NO)ccc32)cc1 [Compound I-90, N-hydroxy-4-(4-(methylsulfonyl)benzyl)-3-oxo-3,4-dihydro-2H-benzo[b][1,4]oxazine-7-carboxamide]	6.00 to 7.00
COc1ccc(CN2C(=O)C(C)Oc3cc(C(=O)NO)ccc32)cc1 (stereo not drawn) [Compound I-91, N-hydroxy-4-(4-methoxybenzyl)-2-methyl-3-oxo-3,4-dihydro-2H-benzo[b][1,4]oxazine-7-carboxamide]	6.00 to 7.00
CC1Oc2cc(C(=O)NO)ccc2N(Cc2ccc(S(C)(=O)=O)cc2)C1=O (stereo not drawn) [Compound I-92, N-hydroxy-2-methyl-4-(4-(methylsulfonyl)benzyl)-3-oxo-3,4-dihydro-2H-benzo[b][1,4]oxazine-7-carboxamide]	6.00 to 7.00
CS(=O)(=O)c1ccc(CN2C(=O)COc3ccc(C(=O)NO)cc32)c(Cl)c1 [Compound I-93, 4-(2-chloro-4-(methylsulfonyl)benzyl)-N-hydroxy-3-oxo-3,4-dihydro-2H-benzo[b][1,4]oxazine-6-carboxamide]	> 7.60
O=C(NO)c1ccc2c(c1)N(C(=O)N1CCCCC1)CCO2 [Compound I-97, N-hydroxy-4-(piperidine-1-carbonyl)-3,4-dihydro-2H-benzo[b][1,4]oxazine-6-carboxamide]	< 6.00
COc1ccc(CN2C(=O)C(CCN(C)C)Oc3ccc(C(=O)NO)cc32)cc1 (stereo not drawn) [Compound I-105, 2-(2-(dimethylamino)ethyl)-N-hydroxy-4-(4-methoxybenzyl)-3-oxo-3,4-dihydro-2H-benzo[b][1,4]oxazine-6-carboxamide]	7.00 to 7.60
O=C(NO)c1ccc2c(c1)N(c1nc3ccccc3[nH]1)CCC2 [Compound I-106, 1-(1H-benzo[d]imidazol-2-yl)-N-hydroxy-1,2,3,4-tetrahydroquinoline-7-carboxamide]	6.00 to 7.00
O=C(NO)c1ccc2c(c1)CCCN2c1nc2ccccc2[nH]1 [Compound I-107, 1-(1H-benzo[d]imidazol-2-yl)-N-hydroxy-1,2,3,4-tetrahydroquinoline-6-carboxamide]	< 6.00
COCCn1c(N2CCCc3ccc(C(=O)NO)cc32)nc2ccccc21 [Compound I-110, N-hydroxy-1-(1-(2-methoxyethyl)-1H-benzo[d]imidazol-2-yl)-1,2,3,4-tetrahydroquinoline-7-carboxamide]	6.00 to 7.00
COCCn1c(N2CCCc3cc(C(=O)NO)ccc32)nc2ccccc21 [Compound I-111, N-hydroxy-1-(1-(2-methoxyethyl)-1H-benzo[d]imidazol-2-yl)-1,2,3,4-tetrahydroquinoline-6-carboxamide]	6.00 to 7.00
COc1ccc(C(=O)N2CCCc3ccc(C(=O)NO)cc32)cc1 [Compound I-112, N-hydroxy-1-(4-methoxybenzoyl)-1,2,3,4-tetrahydroquinoline-7-carboxamide]	6.00 to 7.00
O=C(NO)c1ccc2c(c1)N(C(=O)C1CCCCC1)CCO2 [Compound I-114, 4-(cyclohexanecarbonyl)-N-hydroxy-3,4-dihydro-2H-benzo[b][1,4]oxazine-6-carboxamide]	6.00 to 7.00

Next, values leading:

pIC50	SMILES
6.00 to 7.00	O=C(NO)c1ccc2c(c1)N(S(=O)(=O)c1ccccc1)CCO2 [Compound I-86, N-hydroxy-4-(phenylsulfonyl)-3,4-dihydro-2H-benzo[b][1,4]oxazine-6-carboxamide]
6.00 to 7.00	COc1ccc(S(=O)(=O)N2CCOc3ccc(C(=O)NO)cc32)cc1 [Compound I-87, N-hydroxy-4-((4-methoxyphenyl)sulfonyl)-3,4-dihydro-2H-benzo[b][1,4]oxazine-6-carboxamide]
7.00 to 7.60	CC(c1ccccc1F)N1C(=O)COc2ccc(C(=O)NO)cc21 (stereo not drawn) [Compound I-95, 4-(1-(2-fluorophenyl)ethyl)-N-hydroxy-3-oxo-3,4-dihydro-2H-benzo[b][1,4]oxazine-6-carboxamide]
< 6.00	O=C(NO)c1ccc2c(c1)N(c1nc3ccccc3[nH]1)CCO2 [Compound I-108, 4-(1H-benzo[d]imidazol-2-yl)-N-hydroxy-3,4-dihydro-2H-benzo[b][1,4]oxazine-6-carboxamide]
< 6.00	O=C(NO)c1ccc2c(c1)OCCN2c1nc2ccccc2[nH]1 [Compound I-109, 4-(1H-benzo[d]imidazol-2-yl)-N-hydroxy-3,4-dihydro-2H-benzo[b][1,4]oxazine-7-carboxamide]
< 6.00	COc1ccc(C(=O)N2CCOc3ccc(C(=O)NO)cc32)cc1 [Compound I-113, N-hydroxy-4-(4-methoxybenzoyl)-3,4-dihydro-2H-benzo[b][1,4]oxazine-6-carboxamide]
6.00 to 7.00	COc1ccc(CN2CCOc3ccc(C(=O)NO)cc32)cc1 [Compound I-115, N-hydroxy-4-(4-methoxybenzyl)-3,4-dihydro-2H-benzo[b][1,4]oxazine-6-carboxamide]
6.00 to 7.00	Cc1ccc(CN2CCOc3ccc(C(=O)NO)cc32)cc1 [Compound I-117, N-hydroxy-4-(4-methylbenzyl)-3,4-dihydro-2H-benzo[b][1,4]oxazine-6-carboxamide]
7.00 to 7.60	O=C(NO)c1ccc2c(c1)N(Cc1ccc(Cl)cc1)CCO2 [Compound I-118, 4-(4-chlorobenzyl)-N-hydroxy-3,4-dihydro-2H-benzo[b][1,4]oxazine-6-carboxamide]
7.00 to 7.60	O=C(NO)c1ccc2c(c1)N(Cc1ccc(C(F)(F)F)cc1)CCO2 [Compound I-119, N-hydroxy-4-(4-(trifluoromethyl)benzyl)-3,4-dihydro-2H-benzo[b][1,4]oxazine-6-carboxamide]
7.00 to 7.60	CS(=O)(=O)c1ccc(CN2CCOc3ccc(C(=O)NO)cc32)cc1 [Compound I-120, N-hydroxy-4-(4-(methylsulfonyl)benzyl)-3,4-dihydro-2H-benzo[b][1,4]oxazine-6-carboxamide]
7.00 to 7.60	COc1cccc(CN2CCOc3ccc(C(=O)NO)cc32)c1 [Compound I-121, N-hydroxy-4-(3-methoxybenzyl)-3,4-dihydro-2H-benzo[b][1,4]oxazine-6-carboxamide]
7.00 to 7.60	Cc1cccc(CN2CCOc3ccc(C(=O)NO)cc32)c1 [Compound I-122, N-hydroxy-4-(3-methylbenzyl)-3,4-dihydro-2H-benzo[b][1,4]oxazine-6-carboxamide]
7.00 to 7.60	O=C(NO)c1ccc2c(c1)N(Cc1cccc(Cl)c1)CCO2 [Compound I-123, 4-(3-chlorobenzyl)-N-hydroxy-3,4-dihydro-2H-benzo[b][1,4]oxazine-6-carboxamide]
> 7.60	O=C(NO)c1ccc2c(c1)N(Cc1cccc(C(F)(F)F)c1)CCO2 [Compound I-124, N-hydroxy-4-(3-(trifluoromethyl)benzyl)-3,4-dihydro-2H-benzo[b][1,4]oxazine-6-carboxamide]
6.00 to 7.00	COc1ccccc1CN1CCOc2ccc(C(=O)NO)cc21 [Compound I-126, N-hydroxy-4-(2-methoxybenzyl)-3,4-dihydro-2H-benzo[b][1,4]oxazine-6-carboxamide]
7.00 to 7.60	Cc1ccccc1CN1CCOc2ccc(C(=O)NO)cc21 [Compound I-127, N-hydroxy-4-(2-methylbenzyl)-3,4-dihydro-2H-benzo[b][1,4]oxazine-6-carboxamide]
> 7.60	O=C(NO)c1ccc2c(c1)N(Cc1ccccc1Cl)CCO2 [Compound I-128, 4-(2-chlorobenzyl)-N-hydroxy-3,4-dihydro-2H-benzo[b][1,4]oxazine-6-carboxamide]
6.00 to 7.00	O=C(NO)c1ccc2c(c1)N(Cc1ccccc1C(F)(F)F)CCO2 [Compound I-129, N-hydroxy-4-(2-(trifluoromethyl)benzyl)-3,4-dihydro-2H-benzo[b][1,4]oxazine-6-carboxamide]
